Assays:
Experiment in all cases: Test B preemergence/postemergence greenhouse plant response rating 0 to 10
Settings in all cases: 0 to 10 scale
[1] = tested on: sorghum; type: in vivo, Sorghum bicolor
Procedure, shortened: (§1)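 Planted seeds are treated preemergence with compound dissolved in a non-phytotoxic solvent, while postemergence applications go onto plants of two to eighteen cm. Plants stay in the greenhouse twelve to sixteen days and are then rated visually relative to controls.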

[2] = tested on: barley; type: in vivo, Hordeum vulgare
Procedure, shortened: as §1

[3] = tested on: wild buckwheat; type: in vivo, Polygonum convolvulus
Procedure, shortened: as §1

[4] = tested on: velvetleaf; type: in vivo, Abutilon theophrasti
Procedure, shortened: as §1

[5] = tested on: cotton; type: in vivo, Gossypium hirsutum
Procedure, shortened: as §1

[6] = tested on: giant foxtail; type: in vivo, Setaria faberii
Procedure, shortened: as §1

[7] = tested on: sugar beet; type: in vivo, Beta vulgaris
Procedure, shortened: as §1

[8] = tested on: chickweed; type: in vivo, Stellaria media
Procedure, shortened: as §1

[9] = tested on: purple nutsedge; type: in vivo, Cyperus rotundus
Procedure, shortened: as §1

[10] = tested on: wheat; type: in vivo, Triticum aestivum
Procedure, shortened: as §1

[11] = tested on: blackgrass; type: in vivo, Alopecurus myosuroides
Procedure, shortened: as §1

[12] = tested on: morningglory; type: in vivo, Ipomoea hederacea
Procedure, shortened: as §1

[13] = tested on: barnyardgrass; type: in vivo, Echinochloa crus-galli
Procedure, shortened: as §1

[14] = tested on: lambsquarters; type: in vivo, Chenopodium album
Procedure, shortened: as §1

[15] = tested on: crabgrass; type: in vivo, Digitaria spp.
Procedure, shortened: as §1

[16] = tested on: bedstraw; type: in vivo, Galium aparine
Procedure, shortened: as §1

[17] = tested on: rice; type: in vivo, Oryza sativa
Procedure, shortened: as §1

[18] = tested on: cheatgrass; type: in vivo, Bromus secalinus
Procedure, shortened: as §1

[19] = tested on: corn; type: in vivo, Zea mays
Procedure, shortened: as §1

[20] = tested on: rape; type: in vivo, Brassica napus
Procedure, shortened: as §1

[21] = tested on: wild oat; type: in vivo, Avena fatua
Procedure, shortened: as §1

[22] = tested on: cocklebur; type: in vivo, Xanthium pensylvanicum
Procedure, shortened: as §1

[23] = tested on: soybean; type: in vivo, Glycine max
Procedure, shortened: as §1

Structure (SMILES): O=C1COc2cc(F)c(-c3nn4c(c3Cl)CCCC4)cc2N1 [Compound 51]
- Plant response rating, Sorghum ([1]; POSTEMERGENCE, Rate 50 g/ha): 4
- Plant response rating, Sorghum ([1]; PREEMERGENCE, Rate 50 g/ha): 0
- Plant response rating, Sorghum ([1]; Rate 200 g/ha, POSTEMERGENCE): 6
- Plant response rating, Sorghum ([1]; Rate 200 g/ha, PREEMERGENCE): 0
- Plant response rating, Barley ([2]; POSTEMERGENCE, Rate 50 g/ha): 3
- Plant response rating, Barley ([2]; POSTEMERGENCE, Rate 200 g/ha): 3
- Plant response rating, Barley ([2]; PREEMERGENCE, Rate 50 g/ha): 0
- Plant response rating, Barley ([2]; Rate 200 g/ha, PREEMERGENCE): 0
- Plant response rating, Wild buckwheat ([3]; POSTEMERGENCE, Rate 50 g/ha): 10
- Plant response rating, Wild buckwheat ([3]; PREEMERGENCE, Rate 50 g/ha): 10
- Plant response rating, Wild buckwheat ([3]; Rate 200 g/ha, POSTEMERGENCE): 10
- Plant response rating, Wild buckwheat ([3]; Rate 200 g/ha, PREEMERGENCE): 10
- Plant response rating, Velvetleaf ([4]; POSTEMERGENCE, Rate 50 g/ha): 9
- Plant response rating, Velvetleaf ([4]; PREEMERGENCE, Rate 50 g/ha): 10
- Plant response rating, Velvetleaf ([4]; Rate 200 g/ha, POSTEMERGENCE): 10
- Plant response rating, Velvetleaf ([4]; Rate 200 g/ha, PREEMERGENCE): 10
- Plant response rating, Cotton ([5]; POSTEMERGENCE, Rate 50 g/ha): 10
- Plant response rating, Cotton ([5]; POSTEMERGENCE, Rate 200 g/ha): 10
- Plant response rating, Cotton ([5]; PREEMERGENCE, Rate 50 g/ha): 1
- Plant response rating, Cotton ([5]; Rate 200 g/ha, PREEMERGENCE): 5
- Plant response rating, Giant foxtail ([6]; POSTEMERGENCE, Rate 50 g/ha): 4
- Plant response rating, Giant foxtail ([6]; PREEMERGENCE, Rate 50 g/ha): 2
- Plant response rating, Giant foxtail ([6]; Rate 200 g/ha, POSTEMERGENCE): 6
- Plant response rating, Giant foxtail ([6]; Rate 200 g/ha, PREEMERGENCE): 8
- Plant response rating, Sugar beet ([7]; POSTEMERGENCE, Rate 50 g/ha): 10
- Plant response rating, Sugar beet ([7]; PREEMERGENCE, Rate 50 g/ha): 10
- Plant response rating, Sugar beet ([7]; Rate 200 g/ha, POSTEMERGENCE): 10
- Plant response rating, Sugar beet ([7]; Rate 200 g/ha, PREEMERGENCE): 10
- Plant response rating, Chickweed ([8]; POSTEMERGENCE, Rate 50 g/ha): 10
- Plant response rating, Chickweed ([8]; POSTEMERGENCE, Rate 200 g/ha): 10
- Plant response rating, Chickweed ([8]; PREEMERGENCE, Rate 50 g/ha): 6
- Plant response rating, Chickweed ([8]; Rate 200 g/ha, PREEMERGENCE): 10
- Plant response rating, Nutsedge ([9]; POSTEMERGENCE, Rate 50 g/ha): 3
- Plant response rating, Nutsedge ([9]; PREEMERGENCE, Rate 50 g/ha): 0
- Plant response rating, Nutsedge ([9]; Rate 200 g/ha, POSTEMERGENCE): 3
- Plant response rating, Nutsedge ([9]; Rate 200 g/ha, PREEMERGENCE): 0
- Plant response rating, Wheat ([10]; POSTEMERGENCE, Rate 50 g/ha): 3
- Plant response rating, Wheat ([10]; PREEMERGENCE, Rate 50 g/ha): 0
- Plant response rating, Wheat ([10]; Rate 200 g/ha, POSTEMERGENCE): 4
- Plant response rating, Wheat ([10]; Rate 200 g/ha, PREEMERGENCE): 2
- Plant response rating, Blackgrass ([11]; POSTEMERGENCE, Rate 50 g/ha): 6
- Plant response rating, Blackgrass ([11]; POSTEMERGENCE, Rate 200 g/ha): 6
- Plant response rating, Blackgrass ([11]; PREEMERGENCE, Rate 50 g/ha): 2
- Plant response rating, Blackgrass ([11]; Rate 200 g/ha, PREEMERGENCE): 6
- Plant response rating, Morningglory ([12]; POSTEMERGENCE, Rate 50 g/ha): 9
- Plant response rating, Morningglory ([12]; PREEMERGENCE, Rate 50 g/ha): 9
- Plant response rating, Morningglory ([12]; Rate 200 g/ha, POSTEMERGENCE): 10
- Plant response rating, Morningglory ([12]; Rate 200 g/ha, PREEMERGENCE): 10
- Plant response rating, Barnyardgrass ([13]; POSTEMERGENCE, Rate 50 g/ha): 8
- Plant response rating, Barnyardgrass ([13]; POSTEMERGENCE, Rate 200 g/ha): 9
- Plant response rating, Barnyardgrass ([13]; PREEMERGENCE, Rate 50 g/ha): 9
- Plant response rating, Barnyardgrass ([13]; Rate 200 g/ha, PREEMERGENCE): 9
- Plant response rating, Lambsquarter ([14]; POSTEMERGENCE, Rate 50 g/ha): 10
- Plant response rating, Lambsquarter ([14]; PREEMERGENCE, Rate 50 g/ha): 10
- Plant response rating, Lambsquarter ([14]; Rate 200 g/ha, POSTEMERGENCE): 10
- Plant response rating, Lambsquarter ([14]; Rate 200 g/ha, PREEMERGENCE): 10
- Plant response rating, Crabgrass ([15]; POSTEMERGENCE, Rate 50 g/ha): 4
- Plant response rating, Crabgrass ([15]; POSTEMERGENCE, Rate 200 g/ha): 5
- Plant response rating, Crabgrass ([15]; PREEMERGENCE, Rate 50 g/ha): 2
- Plant response rating, Crabgrass ([15]; Rate 200 g/ha, PREEMERGENCE): 9
- Plant response rating, Bedstraw ([16]; POSTEMERGENCE, Rate 50 g/ha): 10
- Plant response rating, Bedstraw ([16]; POSTEMERGENCE, Rate 200 g/ha): 10
- Plant response rating, Bedstraw ([16]; PREEMERGENCE, Rate 50 g/ha): 5
- Plant response rating, Bedstraw ([16]; Rate 200 g/ha, PREEMERGENCE): 10
- Plant response rating, Rice ([17]; POSTEMERGENCE, Rate 50 g/ha): 3
- Plant response rating, Rice ([17]; PREEMERGENCE, Rate 50 g/ha): 0
- Plant response rating, Rice ([17]; Rate 200 g/ha, POSTEMERGENCE): 5
- Plant response rating, Rice ([17]; Rate 200 g/ha, PREEMERGENCE): 2
- Plant response rating, Cheatgrass ([18]; POSTEMERGENCE, Rate 50 g/ha): 4
- Plant response rating, Cheatgrass ([18]; POSTEMERGENCE, Rate 200 g/ha): 4
- Plant response rating, Cheatgrass ([18]; PREEMERGENCE, Rate 50 g/ha): 3
- Plant response rating, Cheatgrass ([18]; Rate 200 g/ha, PREEMERGENCE): 5
- Plant response rating, Corn ([19]; POSTEMERGENCE, Rate 50 g/ha): 4
- Plant response rating, Corn ([19]; POSTEMERGENCE, Rate 200 g/ha): 6
- Plant response rating, Corn ([19]; PREEMERGENCE, Rate 50 g/ha): 0
- Plant response rating, Corn ([19]; Rate 200 g/ha, PREEMERGENCE): 0
- Plant response rating, Rape ([20]; POSTEMERGENCE, Rate 50 g/ha): 7
- Plant response rating, Rape ([20]; PREEMERGENCE, Rate 50 g/ha): 8
- Plant response rating, Rape ([20]; Rate 200 g/ha, POSTEMERGENCE): 10
- Plant response rating, Rape ([20]; Rate 200 g/ha, PREEMERGENCE): 10
- Plant response rating, Wild oat ([21]; POSTEMERGENCE, Rate 50 g/ha): 2
- Plant response rating, Wild oat ([21]; PREEMERGENCE, Rate 50 g/ha): 0
- Plant response rating, Wild oat ([21]; Rate 200 g/ha, POSTEMERGENCE): 3
- Plant response rating, Cocklebur ([22]; POSTEMERGENCE, Rate 50 g/ha): 9
- Plant response rating, Cocklebur ([22]; POSTEMERGENCE, Rate 200 g/ha): 10
- Plant response rating, Cocklebur ([22]; PREEMERGENCE, Rate 50 g/ha): 2
- Plant response rating, Cocklebur ([22]; Rate 200 g/ha, PREEMERGENCE): 9
- Plant response rating, Soybean ([23]; POSTEMERGENCE, Rate 50 g/ha): 8
- Plant response rating, Soybean ([23]; PREEMERGENCE, Rate 50 g/ha): 1
- Plant response rating, Soybean ([23]; Rate 200 g/ha, POSTEMERGENCE): 9
- Plant response rating, Soybean ([23]; Rate 200 g/ha, PREEMERGENCE): 8
